IC50 data for two molecules are collected here from patent EP2808342B1, “Medium for in-vitro toxicity testing and in-vitro toxicity test method using the same” (priority 2013, dated 2014).

Experiment [1] relates to N2a cells. Put plainly: Toxicity test (CCK-8 cell proliferation assay) on 3D cell clusters grown on REP-coated plates. Particulars: Cell Cluster of Ex. 2 (A), REP-plate. Format: cell-based. How it is done: REP was dissolved at a concentration of 10 µM in phosphate buffered saline (PBS), and the 10 µM REP solution was aliquoted in an amount of 50 µl per well into 96-well polystyrene plates and incubated for 1 hr at 37°C. The supernatant was removed from each well to leave REP to adhere to the plates.
(§1) N2a cells ([…], purchased from the ATCC, USA) were seeded at a density of 5x10^5 cells/well into the culture plates coated with REP prepared in Example 1 (hereinafter referred to as "REP-plate"). The cell culture medium was Eagle's Minimum Essential Medium (EMEM) supplemented with 2 mM glutamine, 1 mM sodium pyruvate, 1.5 g/l sodium bicarbonate, 100 units/ml penicillin and 100 µg/ml streptomycin. The REP-plates where N2a cells were seeded were incubated for 3 days at 37°C in a 5% CO2 atmosphere with humidity of 95% to afford the formation of 3D cell clusters.
(§2) To the cell clusters obtained in Example 2 or the cells obtained in Comparative Example 1 was added a solution of PFOA (perfluorooctanoic acid, Mw 414.1 g/mol, Sigma-Aldrich, 171468-5G, 96%) with a concentration of 5 µM, 20 µM, 50 µM, 100 µM, 200 µM, 300 µM, 400 µM, 500 µM, 600 µM, 700 µM, 800 µM, 900 µM, 1,000 µM or 2,000 µM. After 3, 24 or 48 hrs of incubation, the cells were assayed for proliferation using a cell counting kit-8 (CCK-8, Dojindo, Japan).
(§3) The PFOA solution was made by dissolving PFOA in dimethyl sulfoxide (DMSO, Sigma-Aldrich, USA) at a final concentration of 5 µM, 20 µM, 50 µM, 100 µM, 200 µM, 300 µM, 400 µM, 500 µM, 600 µM, 700 µM, 800 µM, 900 µM, 1,000 µM or 2,000 µM.
(§4) For the cell proliferation assay, absorbance (OD) at 450 nm was measured on an amicroplate reader (Multiskan, Thermo USA). From the measurements, inhibitory concentration (IC50) values were calculated using TOXCALC 5.0 (Tidepool Scientific Software, USA).
(§5) A solution of PFOS (perfluorooctane sulfonates; Mw 538.2, Sigma-Aldrich, 77282-10G, ≥98.0 (T)) with a concentration of 5 µM, 20 µM, 50 µM, 100 µM, 200 µM, 300 µM, 400 µM, 500 µM, 600 µM, 700 µM, 800 µM, 900 µM, 1,000 µM or 2, 000 µM was added to the cell clusters obtained in Example 2 and to the cells obtained in Comparative Example 1. After 3, 24 or 48 hrs of incubation, the cells were assayed for proliferation using a cell counting kit-8 (CCK-8, Dojindo, Japan).
(§6) The PFOS solution was made by dissolving PFOS in dimethyl sulfoxide (DMSO, Sigma-Aldrich, USA) at a final concentration of 5 µM, 20 µM, 50 µM, 100 µM, 200 µM, 300 µM, 400 µM, 500 µM, 600 µM, 700 µM, 800 µM, 900 µM, 1,000 µM or 2,000 µM.
(Formazan colour is commonly taken as a measure of viable cells.)

For experiment [2], the system named is N2a cells. Put plainly: Toxicity test (CCK-8 cell proliferation assay) on cells cultured on plates not coated with REP. Format: cell-based. The following applies: Cultured Cell of C. Ex. 1 (B). How it is done: as §1
Cells were cultured in the same manner as in Example 2, with the exception that the plates were not coated with REP.
as §2, §3, §4, §5, §6

Where [3] appears, read: Mus musculus, N2a, 3 hrs incubation.
Where [4] appears, read: Mus musculus, N2a, 24 hrs incubation.
[5] abbreviates: Mus musculus, N2a, 48 hrs incubation.

As usually defined, the IC50 is the concentration that inhibits the measured activity by half. Lower therefore signals inhibition by little substance. Consider `O=C(O)C(F)(F)C(F)(F)C(F)(F)C(F)(F)C(F)(F)C(F)(F)C(F)(F)F` [PFOA, perfluorooctanoic acid], for which the IC50 with N2a cells [1] (setting [3]) was 632 µM; in the experiment with N2a cells [1] (setting [4]), 495 µM; in the experiment with N2a cells [1] (setting [5]), 423 µM; in the experiment on N2a cells [2] (setting [3]), 511 µM; with N2a cells [2] (setting [4]) it was 389 µM; with N2a cells [2] (setting [5]) it was 310 µM.
With `O=S(=O)(O)C(F)(F)C(F)(F)C(F)(F)C(F)(F)C(F)(F)C(F)(F)C(F)(F)C(F)(F)F` [PFOS, perfluorooctane sulfonates], the IC50 amounted to 471 µM with N2a cells [1] (3 hrs incubation); 355 µM in the experiment with N2a cells [1] (24 hrs incubation); 300 µM in the experiment on N2a cells [1] (48 hrs incubation); 196 µM with N2a cells [2] (3 hrs incubation); 219 µM with N2a cells [2] (24 hrs incubation); 220 µM in the experiment with N2a cells [2] (48 hrs incubation).
